Columns and labels:
[1] = tested on: Zika virus; assay: (§1) Functional CPE-based assay to measure dose dependent changes in antiviral-drug inhibitory efficacy against Zika virus MR766 in Vero E6 miRFP670 cells. Cells are treated with antiviral candidates that are serially diluted. EC50 is reported via analysis of MTS assay as a readout of CPE. The assay has been performed by KU Leuven.; format: organism-based, Chlorocebus sabaeus, Vero C1008; conditions: Zika virus; for EC50: Vero C1008
[2] = tested on: Zika virus; assay: as §1, with “cells (cotreated with P-gp inhibitor, CP100356).” for “cells.”; format: organism-based, Chlorocebus sabaeus, Vero C1008; conditions: Zika virus; for EC90: P-gp concentration 500 nM, P-gp inhibitor CP100356
[3] = tested on: dengue virus type 2; assay: Functional assay to measure dose dependent changes in antiviral-drug inhibitory efficacy against Dengue virus type 2 New Guinea C in Vero E6 miRFP670 cells (cotreated with P-gp inhibitor, CP100356). Cells are treated with antiviral candidates that are serially diluted, following infection, cells are fixed. EC50 is reported via analysis of fluorescence intensity using high-content imager. The …; format: organism-based, Chlorocebus sabaeus, Vero C1008
[4] = tested on: dengue virus type 2; assay: Functional immunofluorescence assay to measure dose dependent changes in antiviral-drug inhibitory efficacy against Dengue virus type 2 Thailand/16681/84 in Vero E6/TMPRSS2 cells (cotreated with P-gp inhibitor, Elacridar). Cells are treated with antiviral candidates that are serially diluted, following infection, cells are fixed. EC50 is reported via analysis of immunofluorescence staining. The assay has been performed by Icahn School of Medicine at Mount Sinai.; format: organism-based, Chlorocebus sabaeus, VeroE6/TMPRSS2; conditions: Dengue virus

CCc1cc(Br)cc2c(Cc3ccc(-c4nnn[nH]4)cc3)c[nH]c12
EC50 [1]: > 50 µM
EC90 ([1]; Vero C1008, Baseline response 0 %, Hill slope -0.347, Maximum measured 5.052 %, Maximum response 100 %, Minimum measured -3.467 %, R squared 0.177): > 50 µM
EC90 ([1]; Vero C1008, Maximum measured -3.488 %, Minimum measured -8.239 %): > 50 µM
EC50 ([2]; Vero C1008): > 50 µM
EC90 ([2]; Vero C1008, Maximum measured 2.453 %, Minimum measured -6.07 %): > 50 µM
EC90 ([3]; Baseline response 0 %, Hill slope -20.83, Maximum measured 154.882 %, Maximum response 100 %, Minimum measured 18.569 %, P-gp concentration 500 nM, R squared 0.389, P-gp inhibitor CP100356): > 25 µM
EC50 ([3]; Dengue virus, Vero C1008): 24.8 µM
EC90 ([3]; Dengue virus, Vero C1008, Baseline response 0 %, Hill slope -25.951, Maximum measured 114.444 %, Maximum response 100 %, Minimum measured 0.23 %, P-gp concentration 500 nM, R squared 0.943, P-gp inhibitor CP100356): 26.9 µM
EC50 ([3]; vero c1008): 23.3 µM

NCCc1ccc([C@H]2C[C@@H]2c2cc(Cl)cc(NC(=O)OCc3ccccc3)c2)cc1
EC50 [1]: > 50 µM
EC90 ([1]; Vero C1008, Maximum measured 1.279 %, Minimum measured -5.481 %): > 50 µM
EC50 ([2]; Vero C1008): > 50 µM
EC90 ([2]; Vero C1008, Maximum measured 6.997 %, Minimum measured -5.737 %): > 50 µM
EC50 ([3]; Dengue virus, Vero C1008): > 3.12 µM
EC90 ([3]; Dengue virus, Vero C1008, Maximum measured 120.903 %, Minimum measured 100.357 %, P-gp concentration 500 nM, P-gp inhibitor CP100356): > 3.12 µM
EC90 ([3]; Dengue virus, Vero C1008, Maximum measured 221.095 %, Minimum measured 80.639 %, P-gp concentration 500 nM, P-gp inhibitor CP100356): > 6.25 µM
EC50 ([3]; vero c1008): > 6.25 µM

O=C(O)c1cc2cc(-c3cc(Cl)cc(C4CC4)c3)ccc2[nH]1
EC50 [1]: > 50 µM
EC90 ([1]; Vero C1008, Baseline response 0 %, Hill slope 0.633, Maximum measured 10.894 %, Maximum response 100 %, Minimum measured 0.566 %, R squared 0.67): > 50 µM
EC50 ([2]; Vero C1008): > 50 µM
EC90 ([2]; Vero C1008, Baseline response 0 %, Hill slope 0.262, Maximum measured 7.755 %, Maximum response 100 %, Minimum measured -1.169 %, R squared 0.013): > 50 µM
EC50 ([3]; Dengue virus, Vero C1008): 45.8 µM
EC90 ([3]; Dengue virus, Vero C1008, Baseline response 0 %, Hill slope -21.982, Maximum measured 163.66 %, Maximum response 100 %, Minimum measured 12.537 %, P-gp concentration 500 nM, R squared 0.152, P-gp inhibitor CP100356): > 50 µM

CCOCCNC(=O)c1cc(Cl)ccc1NS(=O)(=O)c1ccc(Oc2ccccc2Cl)cc1
EC50 [1]: > 50 µM
EC90 ([1]; Vero C1008, Maximum measured 1.013 %, Minimum measured -2.996 %): > 50 µM
EC50 ([3]; Dengue virus, Vero C1008): 7.26 µM
EC90 ([3]; Dengue virus, Vero C1008, Baseline response 0 %, EC90 CI (lower) 5.297 uM, EC90 CI (upper) 7.186 uM, Hill slope -13.477, Maximum measured 106.241 %, Maximum response 100 %, Minimum measured 0.021 %, P-gp concentration 500 nM, R squared 0.993, P-gp inhibitor CP100356): 8.55 µM

O=C(Nc1ccc2c(c1)CNC2)c1cccc2[nH]ncc12
EC50 ([4]; VeroE6/TMPRSS2): > 50 µM
EC90 ([4]; VeroE6/TMPRSS2, Maximum measured 158.189 %, Minimum measured 143.688 %, P-gp concentration 2 uM, P-gp inhibitor Elacidar): > 50 µM
EC50 [1]: < 0.391 µM
EC90 ([1]; Vero C1008, Baseline response 0 %, Hill slope -0.113, Maximum measured 48.96 %, Maximum response 100 %, Minimum measured -6.302 %, R squared 0.011): < 0.391 µM
EC50 ([3]; Dengue virus, Vero C1008): < 0.391 µM
EC90 ([3]; Dengue virus, Vero C1008, Baseline response 0 %, Hill slope 0.492, Maximum measured 128.823 %, Maximum response 100 %, Minimum measured 60.42 %, P-gp concentration 500 nM, R squared 0.116, P-gp inhibitor CP100356): < 0.391 µM

O=C(Nc1cc(Cl)cc(C(=O)Nc2ccc(C3CCNCC3)cc2)c1)OCc1ccccc1
EC50 [1]: > 50 µM
EC90 ([1]; Vero C1008, Maximum measured […], Minimum measured -3.389 %): > 50 µM
EC50 ([2]; Vero C1008): > 50 µM
EC90 ([2]; Vero C1008, Maximum measured 2.883 %, Minimum measured -3.299 %): > 50 µM
EC90 ([3]; Baseline response 0 %, Hill slope -20.516, Maximum measured 137.543 %, Maximum response 100 %, Minimum measured 2.498 %, P-gp concentration 500 nM, R squared 0.862, P-gp inhibitor CP100356): 1.68 µM
EC50 ([3]; Dengue virus, Vero C1008): 2.86 µM
EC90 ([3]; Dengue virus, Vero C1008): 3.23 µM
EC50 ([3]; vero c1008): 1.51 µM

CCNC(=O)Nc1cc(Cl)cc(C(=O)Nc2ccc3c(c2)CNCCO3)c1
EC50 [1]: > 50 µM
EC90 ([1]; Vero C1008, Baseline response 0 %, Hill slope 2.475, Maximum measured 7.686 %, Maximum response 100 %, Minimum measured -0.684 %, R squared 0.693): > 50 µM
EC50 ([3]; Dengue virus, Vero C1008): > 25 µM
EC90 ([3]; Dengue virus, Vero C1008, Maximum measured 150.987 %, Minimum measured 108.938 %, P-gp concentration 500 nM, P-gp inhibitor CP100356): > 25 µM

Reference: ChEMBL document CHEMBL5661943, “ASAP - In vitro antiviral effect” (2024)
